Series [1] concerns Klebsiella pneumonia ATCC 43816. In words: Minimal Inhibitory Concentration (MIC) broth dilution assay, K. pneumonia ATCC 43816. Conditions: Klebsiella pneumoniae, ATCC43816, 20 hours at 35° C., CAMHB, read-out: MIC K. p ATCC 43816. Format: cell-based. The procedure, abridged: (§1)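 Broth microdilution with twofold compound series in cation-adjusted Mueller Hinton broth, inoculum 5×10^5 CFU/mL, applied to each strain. Plates incubated 20 h at 35 °C in ambient air. MIC […] recorded as the lowest concentration with no visible growth, read by eye.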

A short description of series [2]: Human microsome stability assay. Format: in vitro ADME. Particulars: human liver microsomes 0.5 mg/mL, 37° C., pH 7.4, NADPH regenerating system. The procedure, abridged:
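Compound […] with 0.5 mg/mL human liver microsomal protein in 100 mM potassium phosphate pH 7.4, 10 min preincubation at 37 °C, started with NADPH regenerating system. Sampled 0–30 min, remaining compound by LC-MS/MS; clearance binned low <7, medium 7–16.2, high >16.2 mL/min/kg.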
Background: Liver microsomes are vesicles of endoplasmic reticulum, rich in cytochrome P450 enzymes.

Series [3] deals with Escherichia coli BW 25113. In words: Minimal Inhibitory Concentration (MIC) broth dilution assay, E. coli BW 25113. Format: cell-based. Conditions: Escherichia coli, BW25113, 20 hours at 35° C., CAMHB, read-out: MIC E. coli K-12 BW 25113. The procedure, abridged: as §1
For orientation: Dilution methods test growth across graded concentrations, often in twofold steps.

In series [4] the test system is Escherichia coli ATCC 25922. In words: Minimal Inhibitory Concentration (MIC) broth dilution assay, E. coli ATCC 25922. In kind it is cell-based. Conditions: Escherichia coli, ATCC25922, 20 h, read-out: MIC E. coli ATCC 25922. The procedure, abridged:
as §1

For series [5], the target named is Escherichia coli UDP-2,3-diacylglucosamine hydrolase (LpxH) (Escherichia coli (strain K12), UniProt P43341). In words: Enzymatic IC50 assay of Escherichia coli LpxH (UMP/CMP-Glo luminescence). Conditions: Enzymatic IC50 against Escherichia coli LpxH; read-out: IC50 (converted). Format: biochemical. The procedure, abridged: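 LpxH (2 nM) preincubated 10 min at room temperature with compound (100 μM to 1.7 nM) in Tris-HCl pH7.5 buffer with 2.5 mM MnCl2, then reacted with 5 μM UDP-DAG for 20 min. Reaction heat-stopped at 95° C.; released UMP converted to ATP and read by luciferase luminescence (UMP/CMP-Glo).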
Escherichia coli UDP-2,3-diacylglucosamine hydrolase (LpxH), sequence (P43341 whole entry): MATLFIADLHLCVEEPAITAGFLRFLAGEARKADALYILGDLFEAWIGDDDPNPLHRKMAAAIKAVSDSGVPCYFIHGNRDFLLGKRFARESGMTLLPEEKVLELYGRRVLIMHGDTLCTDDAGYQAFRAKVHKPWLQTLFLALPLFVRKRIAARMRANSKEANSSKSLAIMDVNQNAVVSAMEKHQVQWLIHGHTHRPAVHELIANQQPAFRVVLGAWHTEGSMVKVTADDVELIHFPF

Values after ≈ are worked out from the molar mass of the structure shown.

One may read the MIC as the lowest concentration that inhibits growth of the organism. Broadly, the IC50 is the concentration at which inhibition is half-maximal. As to `N[C@@H]1CC(=O)N(c2ccc(S(=O)(=O)N3CCN(c4cc(C(F)(F)[C@H]5CC[C@H](C(=O)NNC(=O)C6CCNCC6)CC5)cc(Cl)n4)CC3)cc2)C1` [Example 051, Trans-N′-[4-[[2-chloro-6-[4-[4-[(4R)-4-amino-2-oxo-pyrrolidin-1-yl]phenyl]sulfonylpiperazin-1-yl]-4-pyridyl]-difluoro-methyl]cyclohexanecarbonyl]piperidine-4-carbohydrazide], the minimum inhibitory concentration (MIC) amounted to 4.6 µg/mL (≈ 6.24 µM) in series [1], 2.3 µg/mL (≈ 3.12 µM) in series [3] and 4.6 µg/mL (≈ 6.24 µM) in series [4]. Besides, the “Clearance of Human microsome” value in series [2] is 8.70 mL/min/kg. Moreover, the IC50 in series [5] is 12.2 nM.
For `NC(CO)CNC(=O)[C@H]1CC[C@H](C(F)(F)c2cc(Cl)nc(N3CCN(S(=O)(=O)c4ccc(N5C[C@H](N)CC5=O)cc4)CC3)c2)CC1` (stereo partly drawn) [Example 052, Trans-N-(2-amino-3-hydroxy-propyl)-4-[[2-chloro-6-[4-[4-[(4R)-4-amino-2-oxo-pyrrolidin-1-yl]phenyl]sulfonylpiperazin-1-yl]-4-pyridyl]-difluoro-methyl]cyclohexanecarboxamide], the MIC in series [1], in series [3] and in series [4] was 0.56 µg/mL (≈ 0.818 µM) throughout. In addition, the “Clearance of Human microsome” value in series [2] amounted to 7.41 mL/min/kg. The IC50 in series [5] was < 2.92 nM.
Turning to `NCCCNC(=O)C1CC2C(C1)C2C(F)(F)c1cc(Cl)nc(N2CCN(S(=O)(=O)c3ccc(N4C[C@H](N)CC4=O)cc3)CC2)c1` (stereo partly drawn) [Example 055, N-(3-aminopropyl)-6-[[2-chloro-6-[4-[4-[(4R)-4-amino-2-oxo-pyrrolidin-1-yl]phenyl]sulfonylpiperazin-1-yl]-4-pyridyl]-difluoro-methyl]bicyclo[3.1.0]hexane-3-carboxamide], the MIC in series [1] turned out to be 0.55 µg/mL (≈ 0.826 µM); in series [3] it was 0.55 µg/mL (≈ 0.826 µM); in series [4], 0.85 µg/mL (≈ 1.28 µM). The “Clearance of Human microsome” value in series [2] is recorded as 8.58 mL/min/kg. Moreover, in series [5], the IC50 is 9.01 nM.
Turning to `NCCCNC(=O)[C@H]1CC[C@H](C(F)(F)c2cc(Cl)nc(N3CCN(S(=O)(=O)c4ccc(N5C[C@H](N)CC5=O)cc4)CC3)c2)CC1` [Example 056, Trans-N-(3-aminopropyl)-4-[[2-chloro-6-[4-[4-[(4R)-4-amino-2-oxo-pyrrolidin-1-yl]phenyl]sulfonylpiperazin-1-yl]-4-pyridyl]-difluoro-methyl]cyclohexanecarboxamide], the MIC in series [1] is 1.1 µg/mL (≈ 1.65 µM); in series [3] it was 1.1 µg/mL (≈ 1.65 µM); in series [4], 1.2 µg/mL (≈ 1.8 µM). Further, the “Clearance of Human microsome” value in series [2] came out at 11.37 mL/min/kg. Further, in series [5], the IC50 is 5.99 nM.
Turning to `NCC1CN(C(=O)[C@H]2CC[C@H](C(F)(F)c3cc(Cl)nc(N4CCN(S(=O)(=O)c5ccc(N6C[C@H](N)CC6=O)cc5)CC4)c3)CC2)C1` [Example 057], the MIC in series [1], in series [3] and in series [4] was 1.1 µg/mL (≈ 1.62 µM) each time. Moreover, the “Clearance of Human microsome” value in series [2] is on record as 6.15 mL/min/kg. The IC50 in series [5] was 2.94 nM.
In the case of `NCCCNC(=O)[C@H]1CC[C@H](C(F)(F)c2cc(Cl)nc(N3CCN(S(=O)(=O)c4ccc(N5C[C@@H](CO)OC5=O)cc4)CC3)c2)CC1` [Example 058, Trans-N-(3-aminopropyl)-4-[[2-chloro-6-[4-[4-[(5S)-5-(hydroxymethyl)-2-oxo-oxazolidin-3-yl]phenyl]sulfonylpiperazin-1-y1]-4-pyridyl]-difluoro-methyl]cyclohexanecarboxamide], the MIC in series [1] is 1.1 µg/mL (≈ 1.61 µM); in series [3] it was 0.29 µg/mL (≈ 0.423 µM); in series [4], 1.1 µg/mL (≈ 1.61 µM). Moreover, in series [2], the “Clearance of Human microsome” value is 8.04 mL/min/kg. For the same compound, the IC50 in series [5] was < 2.92 nM.
`NCCCNC(=O)[C@H]1CC[C@H](C(F)(F)c2cc(Cl)nc(N3CCN(S(=O)(=O)c4ccc(N5C[C@H](CO)OC5=O)cc4)CC3)c2)CC1` [Example 059, Trans-N-(3-aminopropyl)-4-[[2-chloro-6-[4-[4-[(5R)-5-(hydroxymethyl)-2-oxo-oxazolidin-3-yl]phenyl]sulfonylpiperazin-1-yl]-4-pyridyl]-difluoro-methyl]cyclohexanecarboxamide]: the MIC in series [1], in series [3] and in series [4] was 1.2 µg/mL (≈ 1.75 µM) each time. Also, the “Clearance of Human microsome” value in series [2] is given as 6.15 mL/min/kg. In addition, the IC50 in series [5] was < 2.92 nM.
With `NCCCNC(=O)[C@H]1CC[C@H](C(F)(F)c2cc(Cl)nc(N3CCN(S(=O)(=O)c4ccc(N5CC(N6CCNCC6)CC5=O)cc4)CC3)c2)CC1` (stereo partly drawn) [Example 060, Trans-N-(3-aminopropyl)-4-[[2-chloro-6-[4-[4-(2-oxo-4-piperazin-1-yl-pyrrolidin-1-yl)phenyl]sulfonylpiperazin-1-y1]-4-pyridyl]-difluoro-methyl]cyclohexanecarboxamide], the minimal inhibitory concentration (MIC) in series [1] was determined as 1.2 µg/mL (≈ 1.63 µM); in series [3], 2.4 µg/mL (≈ 3.26 µM); in series [4] it was 1.8 µg/mL (≈ 2.44 µM). For the same compound, the “Clearance of Human microsome” value in series [2] was 8.12 mL/min/kg. In series [5], the half-inhibitory concentration (IC50) was < 2.71 nM.
In the case of `NCCCNC(=O)[C@H]1CC[C@H](C(F)(F)c2cc(Cl)nc(N3CCN(S(=O)(=O)c4ccc(N5C[C@H](N)CC5=O)nc4)CC3)c2)CC1` [Example 061, Trans-N-(3-aminopropyl)-4-[[2-chloro-6-[4-[[6-[(4R)-4-amino-2-oxo-pyrrolidin-1-yl]-3-pyridyl]sulfonyl]piperazin-1-yl]-4-pyridyl]-difluoro-methyl]cyclohexanecarboxamide], the MIC in series [1], in series [3] and in series [4] was 1.1 µg/mL (≈ 1.64 µM) in each case. For the same compound, the “Clearance of Human microsome” value in series [2] turned out to be 6.15 mL/min/kg. Further, the IC50 in series [5] is 2.99 nM.
On to `NCCNCCNC(=O)[C@H]1CC[C@H](C(F)(F)c2cc(Cl)nc(N3CCN(S(=O)(=O)c4ccc(N5C[C@H](N)CC5=O)cc4)CC3)c2)CC1` [Example 072, Trans-N-[2-(2-aminoethylamino)ethyl]-4-[[2-chloro-6-[4-[4-[(4R)-4-amino-2-oxo-pyrrolidin-1-yl]phenyl]sulfonylpiperazin-1-yl]-4-pyridyl]-difluoro-methyl]cyclohexanecarboxamide], for which the figures for the MIC in series [1], in series [3] and in series [4] were 1.1 µg/mL (≈ 1.58 µM), 0.57 µg/mL (≈ 0.817 µM) and 1.1 µg/mL (≈ 1.58 µM), respectively. Also, the “Clearance of Human microsome” value in series [2] was determined as 6.15 mL/min/kg. In addition, the IC50 in series [5] is 4.3 nM.
As to `C[N+](C)(CCN)CCNC(=O)[C@H]1CC[C@H](C(F)(F)c2cc(Cl)nc(N3CCN(S(=O)(=O)c4ccc(N5C[C@H](N)CC5=O)cc4)CC3)c2)CC1` [Example 073, Trans-2-aminoethyl-[2-[[4-[[2-chloro-6-[4-[4-[(4R)-4-amino-2-oxo-pyrrolidin-1-yl]phenyl]sulfonylpiperazin-1-yl]-4-pyridyl]-difluoro-methyl]cyclohexanecarbonyl]amino]ethyl]-dimethyl-ammonium], the MIC in series [1] was 2.4 µg/mL; in series [3] it was 1.2 µg/mL; in series [4] it was 1.2 µg/mL. The “Clearance of Human microsome” value in series [2] worked out at 6.15 mL/min/kg. Further, in series [5], the IC50 is < 2.75 nM.
With `NCC[N+]1(CCNC(=O)[C@H]2CC[C@H](C(F)(F)c3cc(Cl)nc(N4CCN(S(=O)(=O)c5ccc(N6C[C@H](N)CC6=O)cc5)CC4)c3)CC2)CCCC1` [Example 074, Trans-N-[2-[1-(2-aminoethyl)pyrrolidin-1-ium-1-yl]ethyl]-4-[[2-[4-[4-[(4R)-4-amino-2-oxo-pyrrolidin-1-yl]phenyl]sulfonylpiperazin-1-yl]-6-chloro-4-pyridyl]-difluoro-methyl]cyclohexanecarboxamide], the MIC in series [1], in series [3] and in series [4] was 1.9 µg/mL each time. Also, the “Clearance of Human microsome” value in series [2] is 6.15 mL/min/kg. For the same compound, the half-inhibitory concentration (IC50) in series [5] is 39.9 nM.
Take `NCC(=O)NCCNC(=O)[C@H]1CC[C@H](C(F)(F)c2cc(Cl)nc(N3CCN(S(=O)(=O)c4ccc(N5C[C@H](N)CC5=O)cc4)CC3)c2)CC1` [Example 075, Trans-N-[2-[(2-aminoacetyl)amino]ethyl]-4-[[2-chloro-6-[4-[4-[(4R)-4-amino-2-oxo-pyrrolidin-1-yl]phenyl]sulfonylpiperazin-1-yl]-4-pyridyl]-difluoro-methyl]cyclohexanecarboxamide]: the MIC was determined as 1.2 µg/mL (≈ 1.69 µM) in series [1], 2.3 µg/mL (≈ 3.23 µM) in series [3] and 2.3 µg/mL (≈ 3.23 µM) in series [4]. Further, the “Clearance of Human microsome” value in series [2] turned out to be 10.47 mL/min/kg. In addition, the half-inhibitory concentration (IC50) in series [5] was 8.44 nM.
In the case of `COC(CN)CNC(=O)[C@H]1CC[C@H](C(F)(F)c2cc(Cl)nc(N3CCN(S(=O)(=O)c4ccc(N5C[C@H](N)CC5=O)cc4)CC3)c2)CC1` (stereo partly drawn) [Example 076, Trans-N-(3-amino-2-methoxy-propyl)-4-[[2-chloro-6-[4-[4-[(4R)-4-amino-2-oxo-pyrrolidin-1-yl]phenyl]sulfonylpiperazin-1-yl]-4-pyridyl]-difluoro-methyl]cyclohexanecarboxamide], the MIC in series [1], in series [3] and in series [4] was 1.1 µg/mL (≈ 1.58 µM) in each case. Moreover, the “Clearance of Human microsome” value in series [2] was 9.06 mL/min/kg. Besides, in series [5], the IC50 was < 2.86 nM.

For the origin of these results see US20240417387A1, “SULFONYLPIPERAZINYL COMPOUNDS FOR TREATMENT OF BACTERIAL INFECTIONS” (Hoffmann-La Roche Inc., priority 2021, published 2024).
